PubChem BioAssay AID330 (DTP/NCI, 2004)
Values joined by “and” are separate entries in the source; they are usually repeats but may differ in a detail not shown here. Equal values may be shown once. Inconclusive results and toxic doses are left out.

System: P388 leukemia ip, CD2F1 mice, survival T/C
Experiment: NCI In Vivo Anticancer Drug Screen. Data for tumor model P388 Leukemia (intraperitoneal) in CD2F1 (CDF1) mice
Conditions: endpoint: median survival time, higher = longer survival
Method in brief: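 Mice carrying the transplanted tumor received test compound or vehicle. Survival was recorded in each group, and the value is the treated-group measurement divided by that of the vehicle-treated control group.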

[1] = dose: 60.0 mg/kg/injection, schedule: Q01DX005 (ip), vehicle: saline with Tween-80
[2] = dose: 120.0 mg/kg/injection, schedule: Q01DX005 (ip), vehicle: saline with Tween-80
[3] = dose: 240.0 mg/kg/injection, schedule: Q01DX005 (ip), vehicle: saline with Tween-80
[4] = dose: 50.0 mg/kg/injection, schedule: Q01DX005 (ip), vehicle: Klucel (hydroxypropylcellulose) (HPC)
[5] = dose: 100.0 mg/kg/injection, schedule: Q01DX005 (ip), vehicle: Klucel (hydroxypropylcellulose) (HPC)
[6] = dose: 200.0 mg/kg/injection, schedule: Q01DX005 (ip), vehicle: Klucel (hydroxypropylcellulose) (HPC)
[7] = dose: 25.0 mg/kg/injection, schedule: Q04DX002 (ip), vehicle: saline with Tween-80
[8] = dose: 12.5 mg/kg/injection, schedule: Q01DX009 (ip), vehicle: saline
[9] = dose: 25.0 mg/kg/injection, schedule: Q01DX009 (ip), vehicle: saline
[10] = dose: 50.0 mg/kg/injection, schedule: Q01DX005 (ip), vehicle: saline with Tween-80
[11] = dose: 100.0 mg/kg/injection, schedule: Q04DX002 (ip), vehicle: saline with Tween-80

Cc1cc2c(c(=O)o1)C(C)CC(c1c(O)cc(C)oc1=O)O2 (centres undefined)
T/C [1]: 114 % of control
T/C [2]: 108 % of control
T/C [3]: 103 % of control

CCCCC1C(=S)N(c2ccccc2)N(c2ccccc2)C1=S
T/C [4]: 101 % of control
T/C [5]: 94 % of control
T/C [6]: 97 % of control

COc1ccc2c(c1OC(=O)NCCCl)-c1cccc3c1C(C2)N(CCOC(=O)NCCCl)CC3 (centres undefined)
T/C (dose: 6.25 mg/kg/injection, schedule: Q04DX003 (ip), vehicle: saline + alcohol): 109 % of control
T/C (dose: 12.5 mg/kg/injection, schedule: Q04DX003 (ip), vehicle: saline + alcohol): 102 % of control
T/C (dose: 25.0 mg/kg/injection, schedule: Q04DX003 (ip), vehicle: saline + alcohol): 96 % of control
T/C (dose: 50.0 mg/kg/injection, schedule: Q04DX003 (ip), vehicle: saline + alcohol): 106 % of control
T/C (dose: 100.0 mg/kg/injection, schedule: Q04DX003 (ip), vehicle: saline + alcohol): 98 % of control
T/C (dose: 200.0 mg/kg/injection, schedule: Q04DX003 (ip), vehicle: saline + alcohol): 105 % of control

C[n+]1c(/C=C2/SC=C(c3ccccc3)S2)ccc2ccccc21
T/C (dose: 0.78 mg/kg/injection, schedule: Q04DX002 (ip), vehicle: saline with Tween-80): 102 % of control and 119 % of control
T/C (dose: 1.56 mg/kg/injection, schedule: Q04DX002 (ip), vehicle: saline with Tween-80): 109 % of control and 123 % of control
T/C (dose: 3.12 mg/kg/injection, schedule: Q04DX002 (ip), vehicle: saline with Tween-80): 119 % of control

C/C=C/C(C)C1OC1(C)C(O)C1COC(=O)C(O)C(OC)C(C)C(=O)C(C)C(O)/C(C)=C/C(C)C(=O)CC(O)C(C)C1=O (centres undefined)
T/C (dose: 0.39 micrograms/kg/injection, schedule: Q01DX005 (ip), vehicle: saline): 106 % of control
T/C (dose: 0.78 micrograms/kg/injection, schedule: Q01DX005 (ip), vehicle: saline): 119 % of control
T/C (dose: 1.56 micrograms/kg/injection, schedule: Q01DX005 (ip), vehicle: saline): 123 % of control
T/C (dose: 3.12 micrograms/kg/injection, schedule: Q01DX005 (ip), vehicle: saline): 119 % of control
T/C (dose: 6.25 micrograms/kg/injection, schedule: Q01DX005 (ip), vehicle: saline): 113 % of control and 123 % of control

[Cl][Pt+2][Cl].[NH-]c1ccc(Cl)cc1[NH-]
T/C (dose: 6.25 mg/kg/injection, schedule: Q04DX002 (ip), vehicle: saline with Tween-80): 150 % of control
T/C (dose: 12.5 mg/kg/injection, schedule: Q04DX002 (ip), vehicle: saline with Tween-80): 157 % of control
T/C [7]: 168 % of control

COc1cc(-c2ccc(N=Nc3ccc4c(S(=O)(=O)O)cc(S(=O)(=O)O)c(N)c4c3O)c(OC)c2)ccc1N=Nc1ccc2c(S(=O)(=O)O)cc(S(=O)(=O)O)c(N)c2c1O
T/C [8]: 94 % of control
T/C [9]: 92 % of control

COc1cc(NCCCCC(C)N)c2nccc(C)c2c1 (centres undefined)
T/C [8]: 94 % of control
T/C [9]: 92 % of control

CC(=O)Nn1c(N)nc2ccccc21
T/C (dose: 100.0 mg/kg/injection, schedule: Q04DX003 (ip), vehicle: saline): 100 % of control
T/C (dose: 200.0 mg/kg/injection, schedule: Q04DX003 (ip), vehicle: saline): 109 % of control
T/C (dose: 400.0 mg/kg/injection, schedule: Q04DX003 (ip), vehicle: saline): 96 % of control

Oc1cccc([C@@]23CCCC[C@H]2CN(CC2CC2)CC3)c1
T/C [10]: 90 % of control
T/C (dose: 100.0 mg/kg/injection, schedule: Q01DX005 (ip), vehicle: saline with Tween-80): 111 % of control

CC1C(=O)OC2C1CCC1(C)CCC(=O)C(C)C21 (centres undefined)
T/C [11]: 101 % of control

COc1ccc(CNC(=O)C#CCOC2CCCCO2)cc1 (centres undefined)
T/C (dose: 12.5 mg/kg/injection, schedule: Q01DX005 (ip), vehicle: saline with Tween-80): 91 % of control
T/C (dose: 25.0 mg/kg/injection, schedule: Q01DX005 (ip), vehicle: saline with Tween-80): 90 % of control
T/C [10]: 86 % of control
T/C (dose: 200.0 mg/kg/injection, schedule: Q01DX005 (ip), vehicle: saline with Tween-80): 86 % of control

C=C1C2CCC3C(CCC4C35CCC[C@]4(C)CN3CCO[C@H]35)(C2)[C@@H]1O (some centres undefined)
T/C (dose: 4.0 mg/kg/injection, schedule: Q01DX009 (ip), vehicle: Klucel (hydroxypropylcellulose) (HPC)): 108 % of control
T/C (dose: 8.0 mg/kg/injection, schedule: Q01DX009 (ip), vehicle: Klucel (hydroxypropylcellulose) (HPC)): 110 % of control
T/C (dose: 16.0 mg/kg/injection, schedule: Q01DX009 (ip), vehicle: Klucel (hydroxypropylcellulose) (HPC)): 94 % of control
T/C (dose: 32.0 mg/kg/injection, schedule: Q01DX009 (ip), vehicle: Klucel (hydroxypropylcellulose) (HPC)): 99 % of control

CN(C)CCOCC(O)(c1ccccc1)c1ccccc1
T/C (dose: 50.0 mg/kg/injection, schedule: Q01DX009 (ip), vehicle: suspension in saline): 100 % of control
T/C (dose: 100.0 mg/kg/injection, schedule: Q01DX009 (ip), vehicle: suspension in saline): 103 % of control

CN=C(NC)NCCSCc1ccc2ccccc2n1
T/C (dose: 12.5 mg/kg/injection, schedule: Q01DX005 (ip), vehicle: saline): 115 % of control
T/C (dose: 25.0 mg/kg/injection, schedule: Q01DX005 (ip), vehicle: saline): 118 % of control
T/C (dose: 50.0 mg/kg/injection, schedule: Q01DX005 (ip), vehicle: saline): 102 % of control and 112 % of control

CCOc1nc2ccc(NC(C)CN3CCN(CCc4ccccc4)CC3)cc2s1 (centres undefined)
T/C [4]: 109 % of control
T/C [5]: 118 % of control

CC(=O)c1c(O)c(C)c(O)c2c1OC1=CC(=O)c3c(C)noc3C12C (centres undefined)
T/C (dose: 12.5 mg/kg/injection, schedule: Q01DX009 (ip), vehicle: gum acacia): 102 % of control
T/C (dose: 25.0 mg/kg/injection, schedule: Q01DX009 (ip), vehicle: gum acacia): 118 % of control
T/C (dose: 50.0 mg/kg/injection, schedule: Q01DX009 (ip), vehicle: gum acacia): 101 % of control and 112 % of control and 113 % of control
T/C (dose: 100.0 mg/kg/injection, schedule: Q01DX009 (ip), vehicle: gum acacia): 114 % of control and 118 % of control and 120 % of control
T/C (dose: 200.0 mg/kg/injection, schedule: Q01DX009 (ip), vehicle: gum acacia): 104 % of control and 105 % of control

Cc1cccc(NC(=O)C(=O)C(C#N)c2c(Cl)cccc2Cl)c1C (centres undefined)
T/C [1]: 102 % of control
T/C [2]: 96 % of control
T/C [3]: 100 % of control

CN(/C=C1\CCCCC1=O)c1ccccc1
T/C (dose: 50.0 mg/kg/injection, schedule: Q01DX009 (ip), vehicle: saline with Tween-80): 98 % of control
T/C (dose: 100.0 mg/kg/injection, schedule: Q01DX009 (ip), vehicle: saline with Tween-80): 102 % of control
T/C (dose: 200.0 mg/kg/injection, schedule: Q01DX009 (ip), vehicle: saline with Tween-80): 113 % of control

OCCN(Cc1ccccn1)Cc1ccccn1
T/C (dose: 7.5 mg/kg/injection, schedule: Q01DX005 (ip), vehicle: saline): 99 % of control
T/C (dose: 15.0 mg/kg/injection, schedule: Q01DX005 (ip), vehicle: saline): 106 % of control

COc1ccc(Cc2coc3cc(OC)cc(OC)c3c2=O)cc1
T/C [1]: 98 % of control
T/C [2]: 97 % of control
T/C [3]: 94 % of control

O=C(NC12CC3CC(CC(C3)C1)C2)OCCN1CCN(CCCN2c3ccccc3Sc3ccc(C(F)(F)F)cc32)CC1
T/C [7]: 97 % of control
T/C (dose: 50.0 mg/kg/injection, schedule: Q04DX002 (ip), vehicle: saline with Tween-80): 101 % of control
T/C [11]: 104 % of control and 113 % of control

O=c1[nH]nc(SCc2c(Cl)cccc2Cl)c(=O)[nH]1
T/C (dose: 25.0 mg/kg/injection, schedule: Q01DX005 (ip), vehicle: Klucel (hydroxypropylcellulose) (HPC)): 95 % of control
T/C [4]: 93 % of control
T/C [5]: 111 % of control
T/C [6]: 95 % of control

Cc1ccc[c]([Hg][Cl])c1N=Nc1ccccc1
T/C (dose: 9.5 mg/kg/injection, schedule: Q01DX009 (ip), vehicle: saline with Tween-80): 118 % of control
T/C (dose: 19.0 mg/kg/injection, schedule: Q01DX009 (ip), vehicle: saline with Tween-80): 110 % of control

O=C1C=CC(O)C1(O)CO (centres undefined)
T/C (dose: 2.5 mg/kg/injection, schedule: Q01DX009 (ip), vehicle: saline + alcohol): 98 % of control
T/C (dose: 5.0 mg/kg/injection, schedule: Q01DX009 (ip), vehicle: saline + alcohol): 100 % of control
T/C (dose: 10.0 mg/kg/injection, schedule: Q01DX009 (ip), vehicle: saline + alcohol): 105 % of control
T/C (dose: 20.0 mg/kg/injection, schedule: Q01DX009 (ip), vehicle: saline + alcohol): 101 % of control

C[n+]1c(/C=C\c2ccc(Cl)cc2)ccc2ccccc21
T/C (dose: 1.56 mg/kg/injection, schedule: Q01DX009 (ip), vehicle: saline with Tween-80): 100 % of control
T/C (dose: 3.13 mg/kg/injection, schedule: Q01DX009 (ip), vehicle: saline with Tween-80): 113 % of control
